In patent publication US7732666B1, “O-methyltransferase gene from sorghum cloning, expression, transformation and characterization” (priority 2006, dated 2010):
Where two headings read alike, the source gives them in different places.

T1: SbOMT1 (Sorghum bicolor, UniProt A8QW52)
T1 construct: full-length open reading frames for all three OMTs were overexpressed in E. coli as N-terminal polyhistidine fusions; polyhistidine (pET15b) (N); made in house; host or cells: E. coli BL21/DE3
T1 sequence (A8QW52 1-376): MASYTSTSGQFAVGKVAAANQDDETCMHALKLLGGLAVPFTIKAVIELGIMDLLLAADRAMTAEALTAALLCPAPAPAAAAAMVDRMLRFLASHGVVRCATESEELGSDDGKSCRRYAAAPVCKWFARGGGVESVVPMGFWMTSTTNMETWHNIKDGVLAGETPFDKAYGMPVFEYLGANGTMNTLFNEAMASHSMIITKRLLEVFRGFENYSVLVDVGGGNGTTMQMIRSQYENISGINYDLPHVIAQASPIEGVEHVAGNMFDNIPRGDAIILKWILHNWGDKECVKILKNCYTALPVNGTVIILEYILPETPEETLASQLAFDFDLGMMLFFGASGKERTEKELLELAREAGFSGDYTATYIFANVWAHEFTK

T2: SbOMT2 (Sorghum bicolor, UniProt A8QW51)
T2 construct: full-length open reading frames for all three OMTs were overexpressed in E. coli as N-terminal polyhistidine fusions; polyhistidine (pET15b) (N); made in house; host or cells: E. coli BL21/DE3
T2 sequence (A8QW51 1-372): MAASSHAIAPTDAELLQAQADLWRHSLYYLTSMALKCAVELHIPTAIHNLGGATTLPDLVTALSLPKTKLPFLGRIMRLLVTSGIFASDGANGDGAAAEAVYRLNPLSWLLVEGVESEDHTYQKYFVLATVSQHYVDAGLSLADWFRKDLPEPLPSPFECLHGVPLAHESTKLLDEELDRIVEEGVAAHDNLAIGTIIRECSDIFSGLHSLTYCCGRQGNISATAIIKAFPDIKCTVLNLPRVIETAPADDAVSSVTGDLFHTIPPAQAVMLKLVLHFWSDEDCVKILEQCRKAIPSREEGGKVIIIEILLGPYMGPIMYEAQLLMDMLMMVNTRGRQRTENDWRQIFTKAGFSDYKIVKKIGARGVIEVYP

B1: SbOMT1 (Sorghum bicolor) (protein)
chain: T1 sequence (A8QW52 1-376)

Assays:
SbOMT1 [1] = molecular target: T1, SbOMT1; experiment: GC-MS analysis of products of recombinant SbOMT1 reacted with resveratrol; assay type: biochemical
Excerpt: (§1) The products from these reactions were then chemically analyzed by gas chromatography/mass spectroscopy. […] Thus, only about 2% of the product obtained was pterostilbene; 88% was 3,5-dihydroxy-4′-methoxystilbene (FIG. 7B).

SbOMT1 [2] = molecular target: T1, SbOMT1; experiment: OMT enzymatic assay (radiometric, 14C-SAM) with recombinant SbOMT1; assay type: biochemical; settings: relative to eugenol = 100%; 30 min at 30° C.
SbOMT3 = molecular target: T3, SbOMT3 (Sorghum bicolor, UniProt A8QW53, DUP296-296); assay type: biochemical; settings: for Relative Activity (%) of Recombinant SbOMT3: relative to 5-n-pentyl-resorcinol = 100%, 30 min at 30° C.; for Km: recombinant SbOMT3, alkylresorcinols and co-substrate SAM
T3 construct: full-length open reading frames for all three OMTs were overexpressed in E. coli as N-terminal polyhistidine fusions; polyhistidine (pET15b) (N); made in house; host or cells: E. coli BL21/DE3
Description: (§2) Substrate specificities and kinetic parameters for recombinant OMTs were determined using to a modified protocol based on Wang and Pichersky (1999. Arch. Biochem. Biophys. 368: 172-180). All enzymatic assays consisted of 90 μL of assay buffer (250 mM Tris-HCl, pH 7.5, 10 mM DTT), 200 μL of purified enzyme preparation (200 μg protein/ml in), 5 μL of a 10 mM substrate stock solution (dissolved in 100% ethanol), and 5 μL of S-[methyl-^14C] adenosyl-L-methionine (40-60 mCi/mmol, 0.1 mCi/ml; ICN Biomedicals, Irvine, Calif.). Reactions were incubated for 30 min at 30° C. using a Thermomixer (Brinkman Instrument, Westbury, N.Y.), then quenched by addition of 25 μL of 6 N HCl. Radiolabeled products were subsequently extracted by the addition of 1 mL of hexane:ethyl acetate (1:1 vol/vol), and 300 μL of the (upper) organic phase were transferred to scintillation vials containing 5 mL of Ultima Gold scintillation fluid (Packard BioScience, Meriden, CT). Scintillation counts were performed using a Tri-Carb 1600TR Liquid Scintillation Analyzer (Packard BioScience). Protein concentrations and time points used for activity measurements were controlled to insure linearity of the assays. Kinetic parameters were determined from assays performed in triplicate as described above, but with substrate concentrations ranging from 10 μM to 10 mM. Data from enzyme kinetics experiments were fit to the Michaelis-Menten equation using the SigmaPlot v. 9.01 enzyme kinetics module (Systat Software, Inc., Point Richmond, Calif.).
(§3) A panel of benzene-derivatives containing different functional groups and substitution patterns were tested in enzyme assays with all three recombinant enzymes (Table 2), including a series of 5-n-alkylresorcinols of increasing chain length, as well as 5-n-pentadecatrienyl resorcinol, the proposed sorgoleone pathway intermediate and in vivo substrate for the participating OMT enzyme (FIG. 1). For these analyses, full-length open reading frames for all three OMTs were overexpressed in E. coli as N-terminal polyhistidine fusions, purified using an activated Ni-column, then radiometrically assayed in the presence of different substrates as described by Wang and Pichersky (1999, supra), with slight modifications.

[3] = test system: human breast cancer and murine lymphoid neoplasma cell lines; settings: cited from earlier work
[4] = test system: Candida albicans, Cryptococcus neoformans, Staphylococcus aureus, and methicillin-resistant S. aureus; settings: Rimando et al. 2003a; cited from earlier work
[5] = test system: Phaeoacremonium aleophilum, Phaeomoniella chlamydospora, Libertella blepharis, Fomitiporia punctata and Stereum hirsutum; settings: Mazzullo et al. 2000; cited from earlier work
SbOMT2 = molecular target: T2, SbOMT2; experiment: Reaction of recombinant SbOMT2 with resveratrol, GC-MS analysis; assay type: biochemical
Excerpt: as §1

CCCCCCCc1cc(O)cc(O)c1 = experiment: purified protein, by the assay type; assay type: biochemical, Sorghum bicolor; settings: other: recombinant SbOMT3, alkylresorcinols and co-substrate SAM; pH 7.5; 30.0 °C
Description: as §2, §3

CCCCc1cc(O)cc(O)c1 = experiment: purified protein, by the assay type; assay type: biochemical, Sorghum bicolor; settings: other: recombinant SbOMT3, alkylresorcinols and co-substrate SAM; pH 7.5; 30.0 °C
Description: as §2, §3

CCCCCCc1cc(O)cc(O)c1 = experiment: purified protein, by the assay type; assay type: biochemical, Sorghum bicolor; settings: other: recombinant SbOMT3, alkylresorcinols and co-substrate SAM; pH 7.5; 30.0 °C
Description: as §2, §3

CCCCCc1cc(O)cc(O)c1 = experiment: purified protein, by the assay type; assay type: biochemical, Sorghum bicolor; settings: other: recombinant SbOMT3, alkylresorcinols and co-substrate SAM; pH 7.5; 30.0 °C
Description: as §2, §3

[6] = substrate: Oc1ccc(C=Cc2cc(O)cc(O)c2)cc1; experiment: purified protein, by the assay type; settings: other: recombinant SbOMT1, substrate resveratrol; pH 7.5; 30.0 °C
[7] = recombinant SbOMT3, alkylresorcinols

T3 sequence (A8QW53 other isoform, or with tags, fused parts or gaps DUP296-296): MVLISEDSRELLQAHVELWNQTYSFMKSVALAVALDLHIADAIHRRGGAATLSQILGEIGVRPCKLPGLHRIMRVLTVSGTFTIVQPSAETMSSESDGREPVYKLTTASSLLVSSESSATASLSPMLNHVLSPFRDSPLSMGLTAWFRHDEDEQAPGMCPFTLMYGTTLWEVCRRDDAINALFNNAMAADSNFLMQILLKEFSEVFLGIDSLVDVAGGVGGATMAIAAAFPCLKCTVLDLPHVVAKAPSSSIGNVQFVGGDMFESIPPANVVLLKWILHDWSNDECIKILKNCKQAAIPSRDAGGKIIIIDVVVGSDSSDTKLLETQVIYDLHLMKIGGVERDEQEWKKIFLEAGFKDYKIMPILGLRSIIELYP

Row | Molecule | Relative Activity (%) of Recombinant SbOMT1 (SbOMT1 [2]) [%] | Relative Activity (%) of Recombinant SbOMT3 (SbOMT3) | other results
1 | COc1ccc(C=Cc2cc(O)cc(O)c2)cc1 [3,5-dihydroxy-4′-methoxystilbene] |  |  | share of the product obtained from reaction of SbOMT1 with resveratrol (SbOMT1 [1]): 88%
2 | COc1ccc(O)cc1 [4-Methoxyphenol] | 8.3 ± 0.5 | 3.3 ± 0.6% | 
3 | CCCCc1cc(O)cc(O)c1 [5-n-Butyl-resorcinol] | 1.1 ± 0.1 | 42.0 ± 1.2% | 
4 | CCCCCCCc1cc(O)cc(O)c1 [5-n-Heptyl-resorcinol] | 0 | 27.2 ± 1.3% | 
5 | CCCCCCc1cc(O)cc(O)c1 [5-n-Hexyl-resorcinol] | 0 | 79.4 ± 7.6% | 
6 | CCCCCCCCCc1cc(O)cc(O)c1 [5-n-Nonyl-resorcinol] | 0 | 3.3 ± 0.8% | 
7 | CCCCCCCCCCCCCCCc1cc(O)cc(O)c1 [5-n-Pentadecyl-resorcinol] | <1.0 | 5.0 ± 0.4% | 
8 | CCCCCc1cc(O)cc(O)c1 [5-n-Pentyl-resorcinol] |  | 100 ± 2.2% | 
9 | CCCc1cc(O)cc(O)c1 [5-n-Propyl-resorcinol] | 2.2 ± 0.9 | 11.8 ± 0.2% | Kcat (SbOMT3; [7]): 1.9 s^−1 × 10^4; V max (SbOMT3; [7]): 15.6 nmol/mg/h; Km (SbOMT3): 1440 µM
10 | C=CC/C=C\C/C=C\CCCCCCCc1cc(O)cc(O)c1 [5-n-[8′, 11′, 14′]-Pentadecatrienyl-resorcinol] |  | 14.9 ± 4.3% | activity of SbOMT3 relative to that for 5-pentadecyl resorcinol (SbOMT3; higher than saturated side chain analogue of identical length): approximately 3 fold
11 | O=C(O)/C=C/c1ccc(O)c(O)c1 [Caffeic acid] |  | 3.6 ± 0.6 3.6 ± 0.6% | 
12 | Oc1ccccc1O [Catechol] |  | 3.6 ± 0.6 3.6 ± 0.6% | 
13 | C=CCc1ccc(O)c(OC)c1 [Eugenol] | 100 ± 5.2 | 3.2 ± 0.5% | 
14 | COc1cc(/C=C/C(=O)O)ccc1O [Ferulic acid] | 3.1 ± 0.3 | 3.5 ± 0.6% | 
15 | COc1ccccc1O [Guaiacol] | 7.8 ± 0.5 | 3.2 ± 0.6% | 
16 | COc1cc(C)cc(O)c1 [Orcinol monomethyl ether] | 49.6 ± 1.6 | 3.5 ± 0.5% | 
17 | Cc1cc(O)cc(O)c1 [Orcinol] | 1.3 ± 0.7 | 4.5 ± 0.1% | 
18 | COc1cc(/C=C/c2ccc(O)cc2)cc(OC)c1 [Pterostilbene] |  |  | cytotoxicity against cancer cell lines [3]: cytotoxic
19 | COc1cccc(O)c1 [Resorcinol monomethyl ether] | 24.8 ± 1.1 | 3.2 ± 0.7% | 
20 | Oc1cccc(O)c1 [Resorcinol] |  | 4.1 ± 0.1% | 
21 | Oc1ccc(C=Cc2cc(O)cc(O)c2)cc1 [Resveratrol] |  |  | inhibition of human pathogens [4]: ineffective; inhibition of esca fungi (mycelial growth) [5]: did not inhibit mycelial growth; reaction of SbOMT2 with resveratrol (SbOMT2): did not react
22 | C[S+](CC[C@H](N)C(=O)[O-])C[C@H]1O[C@@H](n2cnc3c(N)ncnc32)[C@H](O)[C@@H]1O (stereo partly drawn) [SAM, S-Adenosyl-L-Methionine] |  |  | Km (SbOMT3; read-out: Km): 67.5 µM
23 | O=C(O)/C=C/c1ccc(O)cc1 [p-Coumaric acid] | 0 | 3.5 ± 0.4% | 
24 | SbOMT3 (Sorghum bicolor; DUP296-296) |  |  | Km (CCCCCCCc1cc(O)cc(O)c1): 23 µM; Vmax (CCCCCCCc1cc(O)cc(O)c1): 0.000173 µmol/min/mg; kcat (CCCCCCCc1cc(O)cc(O)c1): 0.00012 s⁻¹; kcat/Km (CCCCCCCc1cc(O)cc(O)c1): 5.2 M⁻¹ s⁻¹; Km (CCCCc1cc(O)cc(O)c1): 481 µM; Vmax (CCCCc1cc(O)cc(O)c1): 0.00055 µmol/min/mg; kcat (CCCCc1cc(O)cc(O)c1): 0.00039 s⁻¹; kcat/Km (CCCCc1cc(O)cc(O)c1): 0.81 M⁻¹ s⁻¹; Km (CCCCCCc1cc(O)cc(O)c1): 72 µM; Vmax (CCCCCCc1cc(O)cc(O)c1): 0.00042 µmol/min/mg; kcat (CCCCCCc1cc(O)cc(O)c1): 0.0003 s⁻¹; kcat/Km (CCCCCCc1cc(O)cc(O)c1): 4.2 M⁻¹ s⁻¹; Km (CCCCCc1cc(O)cc(O)c1): 152 µM; Vmax (CCCCCc1cc(O)cc(O)c1): 0.000653 µmol/min/mg; kcat (CCCCCc1cc(O)cc(O)c1): 0.00047 s⁻¹; kcat/Km (CCCCCc1cc(O)cc(O)c1): 3.1 M⁻¹ s⁻¹
25 | B1 |  |  | Km [6]: 16.9 ± 1.2 µM; Vmax [6]: 0.00014 µmol/min/mg; kcat [6]: 0.0001 s⁻¹; kcat/Km [6]: 5.9 M⁻¹ s⁻¹
